Experimental data from publication PMC6156427, “Characterization of NGFFYamide Signaling in Starfish Reveals Roles in Regulation of Feeding Behavior and Locomotory Systems” (Frontiers in Endocrinology, 2018).
No end group written: not given here.

Columns and labels:
[1] = test system: "orphan" G-protein coupled receptor GPR154; conditions: ref [65]; cited from earlier work
Excerpt: (§1) Thus, nothing was known about its physiological roles when NPS was first identified. […] Furthermore, evidence that the anxiolytic effect ...

rodents = conditions: ref [76]; cited from earlier work
Excerpt: as §1

mice = conditions: ref [9], cited from earlier work
Excerpt: as §1

mammals = conditions: ref [15], [18], [72]–[75]; cited from earlier work
Excerpt: as §1

rats = conditions: ref [9]; cited from earlier work
Excerpt: as §1

[2] = test system: tube foot preparations from A. rubens; experiment: in vitro pharmacology, tube foot preparations; set-up: species or system Asterias rubens; conditions: read-out: half maximal response concentration (EC50), tonic contraction; tonic contraction of tube feet, 10^−9-10^−6 M; six measurements; 11°C; four-parameter curve
Description: Here, NGFFYamide was tested in vitro to investigate its effect on apical muscle and tube foot preparations from A. rubens, using the same methods reported previously when testing other neuropeptides ([53], [54], [56]). Briefly, the apical muscle was dissected from the aboral body wall of starfish arms and cut into segments approximately 1 cm in length and cotton ligatures were tied at each end. Tube foot preparations were obtained by dissecting from starfish arms a small square-shaped piece of ambulacral body wall containing a single tube foot podium and its associated ampullae. […] A relaxant effect of NGFFYamide on apical muscle preparations was expressed as a percentage reversal of the maximal contraction induced by 10^−6 M ACh. […] For phasic contractions, peak amplitude and frequency were quantified over a 5-min recording period and expressed as mean amplitude and mean peaks/minute, respectively. For in vitro characterization of the effects of NGFFYamide on tube foot preparations, a concentration-response curve was fitted with a four-parameter curve and the EC50 value was calculated based on six measurements. The in vitro effect of NGFFYamide on basal tone was analyzed by one-way ANOVA using Bonferroni's multiple comparisons post-hoc test. […]

[3] = test system: longitudinal body wall muscle; conditions: A. japonicus; ref [43]; cited from earlier work
Excerpt: (§2) Having analyzed both the anatomical expression pattern and bioactivity of NGFFYamide in the starfish A. rubens, it is of interest to make comparisons with what is known about the physiological roles of NG peptides in other echinoderms. The first NG peptide to be identified in an echinoderm was NGIWYamide, which was isolated from the sea cucumber A. japonicus on account of its effect in causing contraction of longitudinal body wall muscles in this species ([42]).

tentacle preparations = conditions: A. japonicus; ref [43]; cited from earlier work
Excerpt: as §2

intestine preparations = conditions: A. japonicus; ref [43]; cited from earlier work
Excerpt: as §2

[4] = test system: body wall mutable collagenous tissue; conditions: A. japonicus; ref [64]; cited from earlier work
Excerpt: as §2

[5] = test system: oocyte maturation and spawning; conditions: A. japonicus; ref [44]; cited from earlier work
Excerpt: as §2

[6] = test system: tube foot preparations from the sea urchin E. esculentus; conditions: Echinus esculentus; ref [35]; cited from earlier work
Excerpt: as §2

[7] = test system: esophagus preparations from the sea urchin E. esculentus; conditions: Echinus esculentus; ref [35]; cited from earlier work
Excerpt: as §2

[8] = test system: NPS/CCAP-type receptor in the sea urchin S. purpuratus; conditions: ref [8]; cited from earlier work
Excerpt: Evidence that NG peptides are orthologs of vertebrate NPS-type neuropeptides was provided by analysis of the sequence of the NG peptide precursor in the cephalochordate B. floridae, which comprises two copies of a peptide (SFRNGVG) that is identical to the N-terminal region of NPS ([…]) ([34]). However, definitive proof was provided with the discovery that an NPS/CCAP-type receptor in the sea urchin S. purpuratus is activated by the neuropeptide NGFFFamide ([8]). Thus, a bilaterian neuropeptide family comprising NPS in vertebrates, NG peptides in invertebrate deuterostomes and ...

[9] = test system: tube foot preparations from A. rubens; conditions: ACh 10^−6 M; ref [54], [57]; cited from earlier work
Description: Here, NGFFYamide was tested in vitro to investigate its effect on apical muscle and tube foot preparations from A. rubens, using the same methods reported previously when testing other neuropeptides ([53], [54], [56]). Briefly, the apical muscle was dissected from the aboral body wall of starfish arms and cut into segments approximately 1 cm in length and cotton ligatures were tied at each end. […] Thus, application of NGFFYamide triggered phasic contractions of tube feet that were superimposed upon an increase in basal tone. Furthermore, there was concentration-dependency in the effect of NGFFYamide on both the amplitude and the frequency of the phasic contractions. This action of NGFFYamide on tube feet is interesting because it is the first neuropeptide that we have ...

[10] = test system: apical muscle preparations from A. rubens; conditions: ACh 10^−6 M; ref [54], [57]; cited from earlier work
Description: Investigation of the physiological roles of NG peptides in echinoderms was advanced most recently with the discovery of the precursor of the NG peptide NGFFYamide (NGFFY-NH2) in the starfish A. rubens. Research on neuropeptide systems in this species led to the discovery of the first echinoderm neuropeptides to be sequenced—the SALMFamide neuropeptides S1 and S2 ([45]). […] Here, NGFFYamide was tested in vitro to investigate its effect on apical muscle and tube foot preparations from A. rubens, using the same methods reported previously when testing other neuropeptides ([53], [54], [56]). Briefly, the apical muscle was dissected from the aboral body wall of starfish arms and cut into segments approximately 1 cm in length and cotton ligatures were tied at each end. […] Thus, NGFFYamide precursor-expressing cells are present in the coelomic lining of the apical muscle, a thickening of the longitudinally orientated body wall muscle layer located in an aboral and sagittal position in each arm.

moth Manduca sexta = conditions: ref [28], [78], [79]; cited from earlier work
Excerpt: (§3) Furthermore, there is substantial evidence that CCAP is one of several neuropeptides that regulate shedding of the exoskeleton (ecdysis) in arthropods. Thus, a dramatic increase in circulating levels of CCAP has been observed in two crustacean species during ecdysis ([26]).

oviduct = conditions: Locusta migratoria; ref [82]; cited from earlier work
Excerpt: as §3

cockroach P. americana = conditions: ref [33]; cited from earlier work
Excerpt: as §3

gut = conditions: cockroaches; ref [32], [83]; cited from earlier work
Excerpt: as §3

crustaceans = conditions: ref [25]; cited from earlier work
Excerpt: as §3

In the case of “SFRNGVGTGMKKTSFQRAKS [NPS, 20-residue neuropeptide first discovered in rodents]”, the “ligand of GPR154” value [1] is listed as “endogenous ligand”, the “food intake (increase, one study)” value (rodents) is listed as “increase food intake” and the anxiolytic-like effects (mice; mice exposed to stressful conditions) is listed as “anxiolytic-like effects”. The locomotor activity (mice) was “increases locomotor activity”, the “food intake (inhibition)” value (mammals) was “inhibition of food intake” and the wakefulness (rats) was “increases wakefulness”.

For NGFFY-NH2 [NGFFYamide], the EC50 [2] was 0.014 µM.

For NGIWYamide, the “contraction of longitudinal body wall muscle” value [3] is listed as “tonic contraction”, the “contraction of tentacle preparations” value (tentacle preparations) is listed as “tonic contraction” and the “spontaneous phasic contractions of intestine preparations” value (intestine preparations) is listed as “inhibition”. The “effect on body wall mutable collagenous tissue” value [4] was “stiffening” and the “oocyte maturation and spawning” value [5] was “induction of oocyte maturation and spawning”.

For NGFFF-NH2 [NGFFFamide], the “contraction of tube foot preparations” value [6] is given as “contraction”, the “contraction of esophagus preparations” value [7] is given as “contraction” and the “activation of NPS/CCAP-type receptor” value [8] is given as “activated”.

For CC(=O)OCC[N+](C)(C)C [acetylcholine], the “contractant of starfish tube feet” value [9] is given as “known contractant” and the “contractant of starfish apical muscle” value [10] is given as “known contractant”.

In the case of “PFCNAFTGC-NH2 [CCAP, 9-residue neuropeptide first discovered in the crustacean Carcinus maenas]”, the ecdysis motor program (moth Manduca sexta) is listed as “activates an ecdysis motor program”, the oviduct contractions (oviduct) is listed as “induction of oviduct contractions” and the locomotor activity (cockroach P. americana) is listed as “inhibition of locomotor activity”. For the same compound, the “gut contraction and secretion of digestive enzymes” value (gut) was “stimulation of gut contraction and secretion of digestive enzymes” and the cardioexcitatory effect (crustaceans) was “cardioexcitatory”.
